Reference: article PMC3355094 (PLoS Pathogens, 2012)
“And” between values parts separate entries of the source, which are not always exact repeats. Equal values may be shown once.

system: CCL2; assay: Glycan array analysis of CCL2 (CFG mammalian glycan array V3.1); type: binding, Coprinopsis cinerea; settings: Alexa Fluor 488 labeled CCL2 200 µg/ml, array V3.1, average of triplicates
Description: (§1) Purified CCL1 and CCL2 were fluorescently labeled with Alexa Fluor 488 (Invitrogen) according to the manufacturer's protocol and used (at a final concentration of 200 µg/ml) to probe versions 4.2 and 3.1, respectively, of the mammalian glycan array offered by Core H of the Consortium for Functional Glycomics (CFG).

Row | Compound | RFU (relative fluorescence units)
1 | 9NAcNeu5Ac2-6Gal1-4GlcNAc-Sp8 | 239.4 RFU
2 | 9NAcNeu5Ac-Sp8 | 8595.4 RFU
3 | NCCCO[C@H]1O[C@H](CO)[C@@H](O)[C@H](O)[C@@H]1O [-D-Man–Sp8] | 152.9 RFU and 130.5 RFU

system: CCL1; assay: Glycan array analysis of CCL1 (CFG mammalian glycan array V4.2); type: binding, Coprinopsis cinerea; settings: Alexa Fluor 488 labeled CCL1 200 µg/ml, array V4.2, average of triplicates
Description: as §1

Row | Compound | RFU (relative fluorescence units)
4 | C[C@@H]1O[C@@H](OCCCN)[C@@H](O)[C@H](O)[C@@H]1O [Fuc-Sp8] | 26 RFU
5 | NCCCO[C@@H]1O[C@H](CO)[C@@H](O)[C@H](O)[C@H]1NC(=O)CO [GlcN(Gc)-Sp8] | 32 RFU
6 | CC(=O)N[C@H]1[C@H](OCCN)O[C@H](CO)[C@@H](O)[C@@H]1O [GlcNAc-Sp0] | 6 RFU
7 | C[C@@H]1O[C@@H](OCCCN)[C@H](O)[C@H](O)[C@H]1O [Rha-Sp8] | 46 RFU
8 | Fuc1-2Gal1-3(Fuc1-4)GlcNAc-Sp8 | 80 RFU
9 | Fuc1-2Gal1-3GalNAc1-3Gal1-4Gal1-4Glc-Sp9 | 76 RFU
10 | Fuc1-2Gal1-3GalNAc1-3Gal-Sp9 | 129 RFU
11 | Fuc1-2Gal1-3GalNAc1-4(Neu5Ac2-3)Gal1-4Glc-Sp0 | 5 RFU
12 | Fuc1-2Gal1-3GalNAc1-4(Neu5Ac2-3)Gal1-4Glc-Sp9 | 20 RFU
13 | Fuc1-2Gal1-3GalNAc-Sp8 | 70 RFU
14 | Fuc1-2Gal1-3GalNAc-Sp14 | 25 RFU
15 | Fuc1-2Gal1-3GlcNAc1-3Gal1-4Glc-Sp8 | 1 RFU
16 | Fuc1-2Gal1-3GlcNAc1-3Gal1-4Glc-Sp10 | 20 RFU
17 | Fuc1-2Gal1-3GlcNAc-Sp0 | 3 RFU
18 | Fuc1-2Gal1-3GlcNAc-Sp8 | 18 RFU
19 | Fuc1-2Gal1-4(Fuc1-3)GlcNAc1-3Gal1-4(Fuc1-3)GlcNAc1-3Gal1-4(Fuc1-3)GlcNAc-Sp0 | 1835 RFU
20 | Fuc1-2Gal1-4(Fuc1-3)GlcNAc1-3Gal1-4(Fuc1-3)GlcNAc-Sp0 | 54 RFU
21 | Fuc1-2Gal1-4(Fuc1-3)GlcNAc-Sp0 | 10 RFU
22 | Fuc1-2Gal1-4(Fuc1-3)GlcNAc-Sp8 | 29 RFU
23 | Fuc1-2Gal1-4Glc-Sp0 | 47 RFU
24 | Fuc1-2Gal1-4GlcNAc1-3Gal1-4GlcNAc1-3Gal1-4GlcNAc-Sp0 | 61 RFU
25 | Fuc1-2Gal1-4GlcNAc1-3Gal1-4GlcNAc-Sp0 | 15 RFU
26 | Fuc1-2Gal1-4GlcNAc-Sp0 | 52 RFU
27 | Fuc1-2Gal1-4GlcNAc-Sp8 | 45 RFU
28 | Fuc1-2Gal-Sp8 | 12 RFU
29 | Fuc1-3GlcNAc-Sp8 | 30 RFU and 54 RFU
30 | Fuc1-4GlcNAc-Sp8 | 62 RFU

Row | Compound | RFU (relative fluorescence units)
31 | Fuc-Sp9 | -10 RFU
32 | Gal1-2Gal-Sp8 | 71 RFU
33 | Gal1-3(Fuc1-2)Gal1-3GlcNAc-Sp0 | 61 RFU
34 | Gal1-3(Fuc1-2)Gal1-3GlcNAc-Sp8 | 31 RFU
35 | Gal1-3(Fuc1-2)Gal1-4(Fuc1-3)GlcNAc-Sp0 | 46 RFU
36 | Gal1-3(Fuc1-2)Gal1-4(Fuc1-3)GlcNAc-Sp8 | 35 RFU
37 | Gal1-3(Fuc1-2)Gal1-4GlcNAc-Sp0 | 41 RFU
38 | Gal1-4GlcNAc1-2Man1-3(Gal1-4GlcNAc1-2Man1-6)Man1-4GlcNAc1-4GlcNAc-Sp12 | 121 RFU
39 | Gal1-4GlcNAc1-3(Gal1-4GlcNAc1-6)GalNAc-Sp8 | 24 RFU
40 | Gal-Sp8 | 99 RFU and 68 RFU
41 | GalNAc1-3(Fuc1-2)Gal1-3GlcNAc-Sp0 | 100 RFU
42 | GalNAc1-3(Fuc1-2)Gal1-4(Fuc1-3)GlcNAc-Sp0 | 75 RFU
43 | GalNAc1-3(Fuc1-2)Gal1-4Glc-Sp0 | 2 RFU
44 | GalNAc1-3(Fuc1-2)Gal1-4GlcNAc-Sp0 | 82 RFU
45 | GalNAc1-3(Fuc1-2)Gal1-4GlcNAc-Sp8 | 25 RFU
46 | GalNAc1-3(Fuc1-2)Gal-Sp8 | 7 RFU and 8 RFU
47 | GalNAc1-3(Fuc1-2)Gal-Sp18 | 19 RFU
48 | GalNAc1-3Gal1-4Gal1-4GlcNAc-Sp0 | 18 RFU
49 | GalNAc1-3Gal-Sp8 | 8 RFU
50 | GalNAc1-3GalNAc-Sp8 | 7 RFU and 14 RFU
51 | GalNAc1-4(Fuc1-2)Gal1-4GlcNAc-Sp8 | 13 RFU
52 | GalNAc1-4(Fuc1-3)GlcNAc-Sp0 | 7887 RFU
53 | GalNAc1-4GlcNAc-Sp0 | -11 RFU
54 | GalNAc1-4GlcNAc-Sp8 | 3 RFU
55 | GalNAc-Sp15 | 148 RFU
56 | GlcNAc1-2Man1-3(GlcNAc1-2Man1-6)Man1-4GlcNAc1-4GlcNAc-Sp12 | 90 RFU
57 | GlcNAc1-3Gal1-3GalNAc-Sp8 | 11 RFU

Row | Compound | RFU (relative fluorescence units)
58 | GlcNAc-Sp8 | 4 RFU
59 | Man1-3(Man1-6)Man1-4GlcNAc1-4GlcNAc-Sp12 | 84 RFU
60 | Neu5Ac2-3[6OSO3]Gal1-4GlcNAc-Sp8 | 3479 RFU
61 | Neu5Ac2-6Gal1-4GlcNAc1-2Man1-3(Neu5Ac2-6Gal1-4GlcNAc1-2Man1-6)Man1-4GlcNAc1-4GlcNAc-N(LT)AVL | 78 RFU
62 | Neu5Ac2-6Gal1-4GlcNAc1-2Man1-3(Neu5Ac2-6Gal1-4GlcNAc1-2Man1-6)Man1-4GlcNAc1-4GlcNAc-Sp13 | 86 RFU
63 | Neu5Ac-Sp8 | 113 RFU and 98 RFU
64 | Neu5Ac-Sp11 | 247 RFU
65 | [3OSO3]Gal1-3(Fuc1-4)GlcNAc-Sp8 | 89 RFU
66 | [3OSO3]Gal1-3GlcNAc-Sp0 | 93 RFU
67 | [3OSO3]Gal1-3GlcNAc-Sp8 | 173 RFU
68 | [3OSO3]Gal1-4(Fuc1-3)Glc-Sp0 | 140 RFU
69 | [3OSO3]Gal1-4(Fuc1-3)GlcNAc-Sp0 | 383 RFU
70 | [3OSO3]Gal1-4(Fuc1-3)GlcNAc-Sp8 | 407 RFU
71 | [3OSO3]Gal1-4(Fuc1-3)[6OSO3]Glc-Sp0 | 250 RFU
72 | [3OSO3]Gal1-4GlcNAc-Sp0 | 141 RFU
73 | [3OSO3]Gal1-4[6OSO3]Glc-Sp0 | 329 RFU
74 | [3OSO3]Gal1-4[6OSO3]Glc-Sp8 | 228 RFU
75 | [3OSO3]Gal1-4[6OSO3]GlcNAc-Sp0 | 293 RFU
76 | [3OSO3]Gal-Sp8 | 42 RFU
77 | [6OSO3]Gal1-4Glc-Sp0 | 23 RFU
78 | [6OSO3]Gal1-4Glc-Sp8 | 9 RFU
79 | [6OSO3]Gal1-4GlcNAc-Sp8 | 27 RFU
80 | [6OSO3]GlcNAc-Sp8 | 14 RFU
81 | [9NAc]Neu5Ac2-6Gal1-4GlcNAc-Sp8 | 6 RFU
82 | [9NAc]Neu5Ac-Sp8 | 27 RFU
